# Laboratory results published in ChEMBL document CHEMBL1287690, “Mycoepoxydiene, a fungal polyketide, induces cell cycle arrest at the G2/M phase and apoptosis in HeLa cells” (Bioorg Med Chem Lett, 2010).
# Activity calls are given as the source filed them. No cut-off for these calls is given here.
# Columns and labels:
# KB = assay: Cytotoxicity against human KB cells by MTT assay; assay type: functional, cell-based
# AGS = assay: Growth inhibition in human AGS cells after 72 hrs by MTT assay; assay type: functional, cell-based
# HT-29 = assay: Growth inhibition in human HT-29 cells after 72 hrs by MTT assay; assay type: functional, cell-based
# DU-145 = assay: Growth inhibition in human DU145 cells after 72 hrs by MTT assay; assay type: functional, cell-based
# MDA-MB-435 = assay: Growth inhibition in human MDA-MB-435 cells after 72 hrs by MTT assay; assay type: functional, cell-based
# MDA-MB-231 = assay: Growth inhibition in human MDA-MB-231 cells after 72 hrs by MTT assay; assay type: functional, cell-based
# MCF7 = assay: Growth inhibition in human MCF7 cells after 72 hrs by MTT assay; assay type: functional, cell-based
# U2OS = assay: Growth inhibition in human U2OS cells after 72 hrs by MTT assay; assay type: functional, cell-based
# HeLa [1] = assay: Growth inhibition in human HeLa cells after 72 hrs by MTT assay; assay type: functional, cell-based
# OVCAR-3 = assay: Growth inhibition in human OVCAR-3 cells after 72 hrs by MTT assay; assay type: functional, cell-based
# A549 = assay: Growth inhibition in human A549 cells after 72 hrs by MTT assay; assay type: functional, cell-based
# HeLa [2] = assay: Cytotoxicity against human HeLa cells after 72 hrs by MTT assay; assay type: functional, cell-based
# HeLa [3] = assay: Induction of apoptosis in human HeLa cells assessed as increase of dead cells after 24 hrs using propidium iodide staining by flow cytometry; assay type: functional, cell-based
# HeLa [4] = assay: Induction of apoptosis in human HeLa cells assessed as increase of dead cells at 11 uM using propidium iodide staining by flow cytometry; assay type: functional, cell-based; details: TDE = time-dependent effect
# HeLa [5] = assay: Induction of apoptosis in human HeLa cells assessed as increase of dead cells at 12 uM using propidium iodide staining by flow cytometry; assay type: functional, cell-based; details: TDE = time-dependent effect
# HeLa [6] = assay: Induction of apoptosis in human HeLa cells assessed as morphological changes at 14 to 21 uM after 9 hrs by phase contrast microscopic analysis; assay type: functional, cell-based
# HeLa [7] = assay: Induction of apoptosis in human HeLa cells assessed as increase in actin stress fiber formation across cell body after 12 hrs by phase contrast microscopic analysis; assay type: functional, cell-based; details: TDE = time-dependent effect
# HeLa [8] = assay: Induction of apoptosis in human HeLa cells assessed as increase in actin stress fiber formation across cell body at 14 to 21 uM by phase contrast microscopic analysis; assay type: functional, cell-based; details: TDE = time-dependent effect
# HeLa [9] = assay: Cell cycle arrest in human HeLa cells assessed as accumulation at G2/M phase at 14 uM after 12 hrs using propidium iodide staining by flow cytometry relative to control; assay type: functional
# HeLa [10] = assay: Induction of apoptosis in human HeLa cells assessed as reduction in expression of Cdc2 at 14 to 21 uM by immunoblot assay; assay type: functional, cell-based; details: TDE = time-dependent effect
# HeLa [11] = assay: Induction of apoptosis in human HeLa cells assessed as reduction in expression of Cdc2 after 12 hrs by immunoblot assay; assay type: functional, cell-based
# HeLa [12] = assay: Induction of apoptosis in human HeLa cells assessed as reduction in expression of p34 after 12 hrs by immunoblot assay; assay type: functional, cell-based
# HeLa [13] = assay: Induction of apoptosis in human HeLa cells assessed as reduction in expression of GADD45alpha after 12 hrs by immunoblot assay; assay type: functional, cell-based
# HeLa [14] = assay: Induction of apoptosis in human HeLa cells assessed as reduction in expression of WEE1 after 12 hrs by immunoblot assay; assay type: functional, cell-based
# HeLa [15] = assay: Induction of apoptosis in human HeLa cells assessed as reduction in expression of Myt1 after 12 hrs by immunoblot assay; assay type: functional, cell-based
# HeLa [16] = assay: Induction of apoptosis in human HeLa cells assessed as reduction in expression of chk1 after 12 hrs by immunoblot assay; assay type: functional, cell-based
# HeLa [17] = assay: Induction of apoptosis in human HeLa cells assessed as reduction in expression of chk2 after 12 hrs by immunoblot assay; assay type: functional, cell-based
# HeLa [18] = assay: Induction of apoptosis in human HeLa cells assessed as increase in production of p21 at 14 to 21 uM after 12 hrs by immunoblot assay; assay type: functional, cell-based
# HeLa [19] = assay: Induction of apoptosis in human HeLa cells assessed as increase in production of cyclin B1 at 14 to 21 uM after 12 hrs by immunoblot assay; assay type: functional, cell-based
# HeLa [20] = assay: Induction of apoptosis in human HeLa cells assessed as increase in cytochrome C in cytoplasm at 21 uM after 20 hrs by Western blotting; assay type: functional, cell-based
# [21] = molecular target: c-Jun N-terminal kinase, JNK (Homo sapiens) (UniProt P45983+P53779+P45984); assay: Induction of JNK phosphorylation at Thr183/Tyr185 in human HeLa cells at 21 uM after 30 mins by Western blotting; assay type: cell-based
# [22] = molecular target: MAP kinase p38 (Homo sapiens) (UniProt O15264+Q15759+Q16539+P53778); assay: Induction of p38 phosphorylation at Thr180/Tyr182 in human HeLa cells assessed at 21 uM after 30 mins by Western blotting; assay type: cell-based
# HeLa [23] = assay: Induction of apoptosis in human HeLa cells assessed cell death up to 20 uM after 48 hrs using propidium iodide staining by flow cytometry in presence of JNK inhibitor 2 treated 1 hr before compound challenge; assay type: functional, cell-based
# HeLa [24] = assay: Induction of apoptosis in human HeLa cells assessed cell death up to 20 uM after 48 hrs using propidium iodide staining by flow cytometry in presence of SB-203580 treated 1 hr before compound challenge; assay type: functional, cell-based
# HeLa [25] = assay: Induction of apoptosis in human HeLa cells assessed as increase in cleavage fragments of p17 and p12 at 21 uM after 12 to 28 hrs by Western blotting; assay type: functional, cell-based
# HeLa [26] = assay: Induction of apoptosis in human HeLa cells assessed as increase in caspase-3 cleavage at 21 uM after 12 to 28 hrs by Western blotting in presence of z-VAD-fmk; assay type: functional, cell-based
# HeLa [27] = assay: Induction of apoptosis in human HeLa cells assessed as cell death in presence of 25 uM of […] z-VAD-fmk; assay type: functional, cell-based
# HeLa [28] = assay: Induction of apoptosis in human HeLa cells assessed as disruption of tubulin cytoskeleton at 14 to 21 uM by phase contrast microscopic analysis; assay type: functional, cell-based
# HeLa [29] = assay: Cell cycle arrest in human HeLa cells assessed as accumulation at G2/M phase at 21 uM after 12 hrs using propidium iodide staining by flow cytometry relative to control; assay type: functional
# HeLa [30] = assay: Cell cycle arrest in human HeLa cells assessed as accumulation at sub-G1 phase at 14 uM after 36 hrs using propidium iodide staining by flow cytometry relative to control; assay type: functional
# HeLa [31] = assay: Cell cycle arrest in human HeLa cells assessed as accumulation at sub-G1 phase at 21 uM after 36 hrs using propidium iodide staining by flow cytometry relative to control; assay type: functional
# HeLa [32] = assay: Cell cycle arrest in human HeLa cells assessed as accumulation at G2/M phase at 14 uM after 36 hrs using propidium iodide staining by flow cytometry relative to control; assay type: functional
# HeLa [33] = assay: Cell cycle arrest in human HeLa cells assessed as accumulation at G2/M phase at 21 uM after 36 hrs using propidium iodide staining by flow cytometry relative to control; assay type: functional
# HeLa [34] = assay: Induction of apoptosis in human HeLa cells assessed as reduction in expression of p34 at 14 to 21 uM by immunoblot assay; assay type: functional, cell-based; details: TDE = time-dependent effect
# HeLa [35] = assay: Induction of apoptosis in human HeLa cells assessed as reduction in expression of GADD45alpha at 14 to 21 uM by immunoblot assay; assay type: functional, cell-based; details: TDE = time-dependent effect
# HeLa [36] = assay: Induction of apoptosis in human HeLa cells assessed as reduction in expression of WEE1 at 14 to 21 uM by immunoblot assay; assay type: functional, cell-based; details: TDE = time-dependent effect
# HeLa [37] = assay: Induction of apoptosis in human HeLa cells assessed as reduction in expression of Myt1 at 14 to 21 uM by immunoblot assay; assay type: functional, cell-based; details: TDE = time-dependent effect
# HeLa [38] = assay: Induction of apoptosis in human HeLa cells assessed as reduction in expression of chk1 at 14 to 21 uM by immunoblot assay; assay type: functional, cell-based; details: TDE = time-dependent effect
# HeLa [39] = assay: Induction of apoptosis in human HeLa cells assessed as reduction in expression of chk2 at 14 to 21 uM by immunoblot assay; assay type: functional, cell-based; details: TDE = time-dependent effect
# HeLa [40] = assay: Induction of JNK expression in human HeLa cells at 21 uM after 8 hrs by Western blotting; assay type: functional, cell-based
# HeLa [41] = assay: Induction of p38 expression in human HeLa cells at 21 uM after 8 hrs by Western blotting; assay type: functional, cell-based
# HeLa [42] = assay: Induction of apoptosis in human HeLa cells assessed as increase in PARP cleavage at 21 uM after 12 to 28 hrs by Western blotting; assay type: functional, cell-based
structure (smiles),measurement,setting,value
CC(=O)O[C@H]1C=CC(=O)O[C@H]1[C@@H]1[C@H](C)[C@H]2C=CC=C[C@@H]1O2 [MYCOEPOXYDIENE],IC50,KB,< 21.5 µM
same,growth inhibition (GI),AGS,Active
same,growth inhibition (GI),HT-29,Active
same,growth inhibition (GI),DU-145,Active
same,growth inhibition (GI),MDA-MB-435,Active
same,growth inhibition (GI),MDA-MB-231,Active
same,growth inhibition (GI),MCF7,Active
same,growth inhibition (GI),U2OS,Active
same,growth inhibition (GI),HeLa [1],Active
same,growth inhibition (GI),OVCAR-3,Active
same,growth inhibition (GI),A549,Active
same,IC50,HeLa [2],16.8 µM
same,Activity,HeLa [3],Dose-dependent effect
same,Activity,HeLa [4],tde
same,Activity,HeLa [5],tde
same,Activity,HeLa [6],Active
same,Activity,HeLa [7],tde
same,Activity,HeLa [8],tde
same,Activity,HeLa [9],40.9%
same,Activity,HeLa [10],tde
same,Activity,HeLa [11],Dose-dependent effect
same,Activity,HeLa [12],Dose-dependent effect
same,Activity,HeLa [13],Dose-dependent effect
same,Activity,HeLa [14],Dose-dependent effect
same,Activity,HeLa [15],Dose-dependent effect
same,Activity,HeLa [16],Dose-dependent effect
same,Activity,HeLa [17],Dose-dependent effect
same,Activity,HeLa [18],Active
same,Activity,HeLa [19],Active
same,Activity,HeLa [20],Active
same,Activity,[21],Active
same,Activity,[22],Active
same,Activity,HeLa [23],Active
same,Activity,HeLa [24],Active
same,Activity,HeLa [25],Active
same,Activity,HeLa [26],inactive
same,Activity,HeLa [27],inactive
same,Activity,HeLa [28],Dose-dependent effect
same,Activity,HeLa [29],47.5%
same,Activity,HeLa [30],4.8%
same,Activity,HeLa [31],23.3%
same,Activity,HeLa [32],31.4%
same,Activity,HeLa [33],31.3%
same,Activity,HeLa [34],tde
same,Activity,HeLa [35],tde
same,Activity,HeLa [36],tde
same,Activity,HeLa [37],tde
same,Activity,HeLa [38],tde
same,Activity,HeLa [39],tde
same,Activity,HeLa [40],inactive
same,Activity,HeLa [41],inactive
same,Activity,HeLa [42],Active
